In brackets after ≈: the same amount, converted by molar mass. Where a name gives a salt, the structure may show the parent alone. Read-outs that look alike come from different tables or passages of the source.
How the values were obtained:
SF-295 = assay: Human cancer cell line growth inhibition, CNS SF-295; conditions: for TGI: total growth inhibition
P388 = assay: Murine lymphocytic leukemia P388 cell line inhibition
KM20L2 = assay: Human cancer cell line growth inhibition, colon KM20L2; conditions: for TGI: total growth inhibition
Ovcar-3 = assay: Human cancer cell line growth inhibition, ovarian Ovcar-3; conditions: for TGI: total growth inhibition
DU-145 = assay: Human cancer cell line growth inhibition, prostate DU-145; conditions: for TGI: total growth inhibition
BXPC-3 = assay: Human cancer cell line growth inhibition, pancreas-a BXPC-3; conditions: for TGI: total growth inhibition
NCI-H460 = assay: Human cancer cell line growth inhibition, lung-NSC NCI-H460; conditions: for TGI: total growth inhibition

Row | Compound | TGI (SF-295; CNS SF-295) | GI50 (SF-295; Homo sapiens, SF-295) | ED50 (P388; Murine leukemia P388) | TGI (KM20L2; Colon KM20L2) | GI50 (KM20L2; Homo sapiens, KM-20L2) | GI50 (Ovcar-3; Homo sapiens, OVCAR-3) | TGI (Ovcar-3; Ovarian Ovcar-3) | GI50 (DU-145; Homo sapiens, DU-145) | TGI (DU-145; Prostate DU-145) | GI50 (BXPC-3; Homo sapiens, BXPC-3) | TGI (BXPC-3; Pancreas-a BXPC-3) | GI50 (NCI-H460; Homo sapiens, NCI-H460) | TGI (NCI-H460; Lung-NSC NCI-H460) | GI50 (SF-295; CNS SF-295) | GI50 (KM20L2; Colon KM20L2) | GI50 (Ovcar-3; Ovarian Ovcar-3) | GI50 (DU-145; Prostate DU-145) | GI50 (BXPC-3; Pancreas-a BXPC-3) | GI50 (NCI-H460; Lung-NSC NCI-H460) | ED50 (P388)
1 | O=C1N[C@H]2[C@H](O)[C@H](O)[C@@H](O)[C@H](O)[C@@H]2c2cc3c(c(O)c21)OCO3 [Compound 1a, (+)-Pancratistatin] | 0.091 µg/mL (≈ 0.28 µM) | 0.017 µg/mL (≈ 0.0523 µM) | 0.032 µg/mL (≈ 0.0984 µM) | 0.23 µg/mL (≈ 0.707 µM) | 0.026 µg/mL (≈ 0.0799 µM) | 0.032 µg/mL (≈ 0.0984 µM) | 0.11 µg/mL (≈ 0.338 µM) | 0.016 µg/mL (≈ 0.0492 µM) | 0.1 µg/mL (≈ 0.307 µM) | 0.028 µg/mL (≈ 0.0861 µM) | 0.14 µg/mL (≈ 0.43 µM) | 0.048 µg/mL (≈ 0.148 µM) | 0.43 µg/mL (≈ 1.32 µM) | – | – | – | – | – | – | –
2 | O=C1N[C@@H]2C(=C[C@H](O)[C@@H](O)[C@H]2O)c2cc3c(c(O)c21)OCO3 [Compound 2, (+)-narciclasine, reference compound] | 0.049 µg/mL (≈ 0.159 µM) | – | 0.0044 µg/mL (≈ 0.0143 µM) | 0.012 µg/mL (≈ 0.0391 µM) | – | – | 0.044 µg/mL (≈ 0.143 µM) | – | 0.036 µg/mL (≈ 0.117 µM) | – | 0.045 µg/mL (≈ 0.146 µM) | – | 0.1 µg/mL (≈ 0.325 µM) | 0.012 µg/mL (≈ 0.0391 µM) | 0.018 µg/mL (≈ 0.0586 µM) | 0.016 µg/mL (≈ 0.0521 µM) | 0.0071 µg/mL (≈ 0.0231 µM) | 0.016 µg/mL (≈ 0.0521 µM) | 0.022 µg/mL (≈ 0.0716 µM) | –
3 | CC1(C)O[C@@H]2[C@H](O1)[C@@H](O)C=C1c3cc4c(c(O)c3C(=O)N[C@H]12)OCO4 [Compound 3, Narciclasine 3,4-acetonide] | >10 µg/mL | > 10 µg/mL | >10 µg/mL | >10 µg/mL | > 10 µg/mL | > 10 µg/mL | >10 µg/mL | > 10 µg/mL | >10 µg/mL | > 10 µg/mL | >10 µg/mL | > 10 µg/mL | >10 µg/mL | – | – | – | – | – | – | –
4 | CC(=O)Oc1c2c(cc3c1C(=O)NC1C3=CC(OC(C)=O)C3OC(C)(C)OC13)OCO2 (stereo not shown) [Compound 4, 2,7-Di-acetoxy-narciclasine 3,4-acetonide] | >10 µg/mL | – | >10 µg/mL | >10 µg/mL | – | – | >10 µg/mL | – | >10 µg/mL | – | >10 µg/mL | – | >10 µg/mL | >10 µg/mL | >10 µg/mL | >10 µg/mL | >10 µg/mL | >10 µg/mL | >10 µg/mL | –
5 | CC(=O)OC1C=C2c3cc4c(c(O)c3C(=O)NC2C2OC(C)(C)OC12)OCO4 (stereo not shown) [Compound 5, 2-Acetoxy-narciclasine 3,4-acetonide] | >10 µg/mL | – | >10 µg/mL | >10 µg/mL | – | – | >10 µg/mL | – | >10 µg/mL | – | >10 µg/mL | – | >10 µg/mL | >10 µg/mL | >10 µg/mL | >10 µg/mL | >10 µg/mL | >10 µg/mL | >10 µg/mL | –
6 | CC(=O)Oc1c2c(cc3c1C(=O)NC1C4OC(C)(C)OC4C(OC(C)=O)C4OC314)OCO2 (stereo not drawn) [Compound 6, 1,10b-α-epoxy-2,7-diacetoxy-narciclasine 3,4-acetonide] | >10 µg/mL | – | >10 µg/mL | >10 µg/mL | – | – | >10 µg/mL | – | >10 µg/mL | – | >10 µg/mL | – | >10 µg/mL | >10 µg/mL | >10 µg/mL | >10 µg/mL | >10 µg/mL | >10 µg/mL | >10 µg/mL | –
7 | COC1c2c([nH]c(=O)c3c(O)c4c(cc23)OCO4)C2OC(C)(C)OC2C1O (stereo not shown) [Compound 7, 1-Methoxy-Isonarciclasine 3,4-acetonide] | >10 µg/mL | – | >10 µg/mL | >10 µg/mL | – | – | >10 µg/mL | – | >10 µg/mL | – | >10 µg/mL | – | >10 µg/mL | >10 µg/mL | >10 µg/mL | >10 µg/mL | >10 µg/mL | >10 µg/mL | >10 µg/mL | –
8 | CC1(C)O[C@@H]2[C@@H](O)[C@@H](O)[C@@H]3c4cc5c(c(O)c4C(=O)N[C@H]3[C@@H]2O1)OCO5 [Compound 8, 1-Isopancratistatin 3,4-acetonide] | >10 µg/mL | 7.2 µg/mL (≈ 19.7 µM) | 2.6 µg/mL (≈ 7.12 µM) | >10 µg/mL | 6.9 µg/mL (≈ 18.9 µM) | 5 µg/mL (≈ 13.7 µM) | >10 µg/mL | 3.8 µg/mL (≈ 10.4 µM) | >10 µg/mL | 8.8 µg/mL (≈ 24.1 µM) | >10 µg/mL | > 10 µg/mL | >10 µg/mL | – | – | – | – | – | – | –
9 | CC1(C)O[C@@H]2[C@@H](O)[C@@H](O)[C@H]3c4cc5c(c(O)c4C(=O)N[C@H]3[C@@H]2O1)OCO5 [Compound 9, B/C Cis-1-Isopancratistatin 3,4-acetonide] | >10 µg/mL | – | >10 µg/mL | >10 µg/mL | – | – | >10 µg/mL | – | >10 µg/mL | – | >10 µg/mL | – | >10 µg/mL | >10 µg/mL | >10 µg/mL | >10 µg/mL | >10 µg/mL | >10 µg/mL | >10 µg/mL | –
10 | CC1(C)O[C@@H]2[C@@H](O)[C@H]3OC34c3cc5c(c(O)c3C(=O)N[C@H]4[C@@H]2O1)OCO5 (stereo partly drawn) [Compound 10, 1,10b-α-epoxy-narciclasine 3,4-acetonide] | >10 µg/mL | > 10 µg/mL | >10 µg/mL | >10 µg/mL | > 10 µg/mL | > 10 µg/mL | >10 µg/mL | > 10 µg/mL | >10 µg/mL | > 10 µg/mL | >10 µg/mL | > 10 µg/mL | >10 µg/mL | – | – | – | – | – | – | –
11 | CC1(C)O[C@H]2[C@@H]3NC(=O)c4c(cc5c(c4O)OCO5)[C@H]3C3OS(=O)(=O)O[C@@H]3[C@H]2O1 (stereo partly shown) [Compound 12, 1-Isopancratistatin 1,2 Cyclic Sulfate-3,4-acetonide] | >10 µg/mL | > 10 µg/mL | >10 µg/mL | >10 µg/mL | > 10 µg/mL | > 10 µg/mL | >10 µg/mL | > 10 µg/mL | >10 µg/mL | > 10 µg/mL | >10 µg/mL | > 10 µg/mL | >10 µg/mL | – | – | – | – | – | – | –
12 | O=C(OC1C(O)C(O)C(O)C2NC(=O)c3c(cc4c(c3O)OCO4)C21)c1ccccc1 (stereo not shown) [Compound 13, Pancratistatin 1-Benzoate] | 0.0049 µg/mL (≈ 0.0114 µM) | – | – | 0.0034 µg/mL (≈ 0.00792 µM) | – | – | 0.0019 µg/mL (≈ 0.00442 µM) | – | 0.0026 µg/mL (≈ 0.00606 µM) | – | 0.0053 µg/mL (≈ 0.0123 µM) | – | – | 0.0013 µg/mL (≈ 0.00303 µM) | <0.001 µg/mL | <0.001 µg/mL | – | 0.00094 µg/mL (≈ 0.00219 µM) | <0.001 µg/mL | 0.0017 µg/mL (≈ 0.00396 µM)

Reference: patent US6949647B2, “Synthesis of pancratistatin” (Arizona Board of Regents, priority 2000, dated 2005)
